The values that follow come from US10800725B2, “Arylpropionyl-triketone antibacterial agents” (priority 2010, dated 2020).

For test [1], the target named is E. coli RNA polymerase σ70 holoenzyme (Escherichia coli (strain K12), UniProt P0A8T7+P0A8V2). As to the kind of experiment: Fluorescence-detected RNA polymerase assay, E. coli RNAP. The format is biochemical. The protocol: (§1) Fluorescence-detected RNA polymerase assays with E. coli RNA polymerase were performed by a modification of the procedure of Kuhlman et al., 2004 [Kuhlman, P., Duff, H. & Galant, A. (2004) A fluorescence-based assay for multisubunit DNA-dependent RNA polymerases. Anal. Biochem. 324, 183-190]. Reaction mixtures contained (20 μl): 0-100 nM test compound, 75 nM E. coli RNA polymerase σ^70 holoenzyme, 20 nM 384 bp DNA fragment containing the bacteriophage T4 N25 promoter, 100 μM ATP, 100 μM GTP, 100 μM UTP, 100 μM CTP, 50 mM Tris-HCl, pH 8.0, 100 mM KCl, 10 mM MgCl2, 1 mM DTT, 10 μg/ml bovine serum albumin, and 5.5% glycerol. Reaction components other than DNA and NTPs were pre-incubated for 10 min at 37° C. Reactions were carried out by addition of DNA and incubation for 5 min at 37° C., followed by addition of NTPs and incubation for 60 min at 37° C. DNA was removed by addition of 1 μl 5 mM CaCl2 and 2 U DNaseI (Ambion, Inc.), followed by incubation for 90 min at 37° C. RNA was quantified by addition of 100 μl RiboGreen RNA Quantitation Reagent (Invitrogen, Inc.; 1:500 dilution in Tris-HCl, pH 8.0, 1 mM EDTA), followed by incubation for 10 min at 25° C., followed by measurement of fluorescence intensity [excitation wavelength=485 nm and emission wavelength=535 nm; QuantaMaster QM1 spectrofluorometer (PTI, Inc.)]. IC50 is defined as the concentration of inhibitor resulting in 50% inhibition of RNA polymerase activity.

Test [2] addresses M. tuberculosis RNA polymerase core enzyme + σA (Mycobacterium tuberculosis (strain ATCC 25618 / H37Rv), UniProt P9WGY7+P9WGY9). Kind of test: Fluorescence-detected RNA polymerase assay, M. tuberculosis RNAP. The format is biochemical. On the procedure: as §1
Fluorescence-detected RNA polymerase assays with M. tuberculosis RNA polymerase were performed as in Example 21.1, using reaction mixtures containing (20 μl): 0-100 nM test compound, 75 nM M. tuberculosis RNA polymerase core enzyme, 300 nM M. tuberculosis σ^A, 20 nM 384 bp DNA fragment containing the bacteriophage T4 N25 promoter, 100 μM ATP, 100 μM GTP, 100 μM UTP, 100 μM CTP, 40 mM Tris-HCl, pH 8.0, 80 mM NaCl, 5 mM MgCl2, 2.5 mM DTT, and 12.7% glycerol. IC50 is defined as the concentration of inhibitor resulting in 50% inhibition of RNA polymerase activity.

The target in test [3] is S. aureus RNA polymerase core enzyme + σA (Staphylococcus aureus (strain NCTC 8325 / PS 47), UniProt P47768+Q2G0N5). As to the kind of experiment: Fluorescence-detected RNA polymerase assay, S. aureus RNAP. The format is biochemical. The protocol: as §1
Fluorescence-detected RNA polymerase assays with S. aureus RNA polymerase were performed as in Example 21.1, using reaction mixtures containing (20 μl): 0-100 nM test compound, 75 nM S. aureus RNA polymerase core enzyme, 300 nM S. aureus σ^A, 20 nM 384 bp DNA fragment containing the bacteriophage T4 N25 promoter, 100 μM ATP, 100 μM GTP, 100 μM UTP, 100 μM CTP, 40 mM Tris-HCl, pH 8.0, 80 mM NaCl, 5 mM MgCl2, 2.5 mM DTT, and 12.7% glycerol. IC50 is defined as the concentration of inhibitor resulting in 50% inhibition of RNA polymerase activity.

Test [4] concerns Mycobacterium tuberculosis H37Rv. As to the kind of experiment: MIC, microplate Alamar Blue assay. The conditions noted are these: read-out: MIC M. tuberculosis H37Rv.
Test [5] has as its system Staphylococcus aureus ATCC 12600. As to the kind of experiment: MIC, spiral gradient endpoint assay. The conditions noted are these: ATCC12600, read-out: MIC S. aureus 12600.
In test [6] the test system is Enterococcus faecalis ATCC 19433. Kind of test: MIC, spiral gradient endpoint assay. The conditions noted are these: ATCC19433, read-out: MIC E. faecalis 19433.
Test [7] concerns Escherichia coli D21f2tolC. Kind of test: MIC, spiral gradient endpoint assay. The conditions noted are these: read-out: MIC E. coli D21f2tolC.
Test [8] relates to Bacillus anthracis Vollum-1b. As to the kind of experiment: microbe, parasite or virus in culture. Type of test: cell-based. The conditions noted are these: VOLLUM1B, read-out: MIC B. anthracis Vollum-1b.
For test [9], the system named is Francisella tularensis SCHU4. Kind of test: microbe, parasite or virus in culture. The format is cell-based. The conditions noted are these: SCHU4, read-out: MIC F. tularensis SCHU4.
For test [10], the system named is Streptococcus pneumoniae ATCC 49619. Kind of test: MIC, spiral gradient endpoint assay (GC II agar, 5% CO2). The conditions noted are these: ATCC49619, read-out: MIC S. pneumoniae 49619.
Test [11] concerns Streptococcus pyogenes ATCC 12344. The test is described as above. The conditions noted are these: ATCC12344, read-out: MIC S. pyogenes 12344.
In test [12] the test system is Moraxella catarrhalis ATCC 25238. The test is described as above. The conditions noted are these: ATCC25238, read-out: MIC M. catarrhalis 25238.

Structures are written as SMILES. Converted amounts (≈) assume the structure as drawn. Where only a bound is given, the exact number is not on record here.

Turning to `CCCC1=C(O)C(CCC)(CCC)C(=O)C(C(=O)CCc2ccc(Cl)cc2)=C1O` [Compound 13, 3,5-dihydroxy-2-(3-(4-chlorophenyl)propanoyl)-4,6,6-tripropylcyclohexa-2,4-dienone], the results for the half-inhibitory concentration (IC50) in test [1], in test [2] and in test [3] were 7800 nM, 1400 nM and 5300 nM, respectively. Besides, the MIC is above 50 µg/mL in [4], 0.7 µg/mL (≈ 1.67 µM) in test [5], 2.2 µg/mL (≈ 5.25 µM) in [6] and 0.8 µg/mL (≈ 1.91 µM) in test [7].
For the compound `COc1ccccc1CCC(=O)C1=C(O)C(CCC(C)C)=C(O)C(CCC(C)C)(CCC(C)C)C1=O` [Compound 4, 3,5-dihydroxy-2-(3-(2-methoxyphenyl)propanoyl)-4,6,6-triisopentylcyclohexa-2,4-dienone], the half-maximal inhibitory concentration (IC50) in test [1] is 1900 nM; in test [2], 1600 nM; in [3], 4300 nM. The MIC in [8] is 0.098 µg/mL (≈ 0.197 µM); in test [9], above 50 µg/mL; in test [4], above 50 µg/mL; in [5], 0.6 µg/mL (≈ 1.2 µM); in [6] it was 3 µg/mL (≈ 6.02 µM); in test [7], 12 µg/mL (≈ 24.1 µM). For the same compound, the MIC in [10] is 2.7 µg/mL (≈ 5.41 µM); in test [11], 15 µg/mL (≈ 30.1 µM); in test [12] it was above 40 µg/mL.
Regarding `CC(C)CCC1=C(O)C(CCC(C)C)(CCC(C)C)C(=O)C(C(=O)CCc2ccc(F)cc2)=C1O` [Compound 10, 3,5-dihydroxy-2-(3-(4-fluorophenyl)propanoyl)-4,6,6-triisopentylcyclohexa-2,4-dienone], the figures for the half-inhibitory concentration (IC50) in test [1], in [2] and in [3] were 530 nM, 640 nM and 2200 nM, respectively. The MIC worked out at 50 µg/mL (≈ 103 µM) in [4], 0.5 µg/mL (≈ 1.03 µM) in test [5], 2.7 µg/mL (≈ 5.55 µM) in test [6] and 2.7 µg/mL (≈ 5.55 µM) in test [7].
`COc1ccc(CCC(=O)C2=C(O)C(CCC(C)C)=C(O)C(CCC(C)C)(CCC(C)C)C2=O)cc1` [Compound 6, 3,5-dihydroxy-2-(3-(4-methoxyphenyl)propanoyl)-4,6,6-triisopentylcyclohexa-2,4-dienone]: the IC50 in test [1] worked out at 1800 nM; in [2] it was 1200 nM; in test [3] it was 3400 nM. For the same compound, the MIC in test [8] is 0.098 µg/mL (≈ 0.197 µM); in test [9], above 50 µg/mL; in test [4] it was 50 µg/mL (≈ 100 µM); in test [5], 0.6 µg/mL (≈ 1.2 µM); in [6] it was 12 µg/mL (≈ 24.1 µM); in test [7], 6 µg/mL (≈ 12 µM). The values for the MIC in [10], in [11] and in [12] were 5.6 µg/mL (≈ 11.2 µM), 15 µg/mL (≈ 30.1 µM) and 19 µg/mL (≈ 38.1 µM), respectively.
Take `Cc1ccccc1CCC(=O)C1=C(O)C(CCC(C)C)=C(O)C(CCC(C)C)(CCC(C)C)C1=O` [Compound 7, 3,5-dihydroxy-2-(3-(2-methylphenyl)propanoyl)-4,6,6-triisopentylcyclohexa-2,4-dienone]: the 50% inhibitory concentration (IC50) in test [1] turned out to be 210 nM; in [2], 170 nM; in test [3], 1100 nM. The MIC was 50 µg/mL (≈ 104 µM) in [4], 0.5 µg/mL (≈ 1.04 µM) in test [5], 1 µg/mL (≈ 2.07 µM) in test [6] and 7 µg/mL (≈ 14.5 µM) in test [7].
Take `Cc1cccc(CCC(=O)C2=C(O)C(CCC(C)C)=C(O)C(CCC(C)C)(CCC(C)C)C2=O)c1` [Compound 8, 3,5-dihydroxy-2-(3-(3-methylphenyl)propanoyl)-4,6,6-triisopentylcyclohexa-2,4-dienone]: the IC50 in test [1] was determined as 420 nM; in test [2], 600 nM; in [3], 2200 nM. Also, the MIC in test [4] is above 50 µg/mL; in test [5] it was 4 µg/mL (≈ 8.29 µM); in test [6], 1 µg/mL (≈ 2.07 µM); in test [7], 12 µg/mL (≈ 24.9 µM).
Turning to `CC(C)CCC1=C(O)C(CCC(C)C)(CCC(C)C)C(=O)C(C(=O)CCc2ccc(Cl)cc2)=C1O` [Compound 3, 3,5-dihydroxy-2-(3-(4-chlorophenyl)propanoyl)-4,6,6-triisopentylcyclohexa-2,4-dienone], the concentration for half-maximal inhibition (IC50) turned out to be 630 nM in test [1], 770 nM in test [2] and 2400 nM in test [3]. Moreover, the MIC in test [8] was 0.049 µg/mL (≈ 0.0974 µM); in test [9], above 50 µg/mL; in test [4] it was 50 µg/mL (≈ 99.4 µM); in test [5], 0.4 µg/mL (≈ 0.795 µM); in test [6], 1 µg/mL (≈ 1.99 µM); in test [7] it was 8 µg/mL (≈ 15.9 µM). Also, the MIC in test [10], in [11] and in [12] was 19 µg/mL (≈ 37.8 µM) each time.
Turning to `CC(C)CCC1=C(O)C(CCC(C)C)(CCC(C)C)C(=O)C(C(=O)CCc2ccc(C(F)(F)F)cc2)=C1O` [Compound 12, 3,5-dihydroxy-2-(3-(4-trifluoromethylphenyl)propanoyl)-4,6,6-triisopentylcyclohexa-2,4-dienone], the IC50 in test [1] was 120 nM; in test [2], 220 nM; in [3], 460 nM. Also, the MIC in test [4] was found to be 25 µg/mL (≈ 46.6 µM); in test [5], 0.6 µg/mL (≈ 1.12 µM); in [6] it was 0.5 µg/mL (≈ 0.932 µM); in test [7], 4.3 µg/mL (≈ 8.01 µM).
Turning to `CCCCC1=C(O)C(CCCC)(CCCC)C(=O)C(C(=O)CCc2ccc(Cl)cc2)=C1O` [Compound 14, 3,5-dihydroxy-2-(3-(4-chlorophenyl)propanoyl)-4,6,6-tributylcyclohexa-2,4-dienone], the values for the IC50 in [1], in test [2] and in test [3] were 1100 nM, 680 nM and 3100 nM, respectively. In addition, the MIC was above 50 µg/mL in test [4], 0.5 µg/mL (≈ 1.08 µM) in test [5], 1.3 µg/mL (≈ 2.82 µM) in test [6] and 0.6 µg/mL (≈ 1.3 µM) in test [7].
As to `Cc1ccc(CCC(=O)C2=C(O)C(CCC(C)C)=C(O)C(CCC(C)C)(CCC(C)C)C2=O)cc1` [Compound 9, 3,5-dihydroxy-2-(3-(4-methylphenyl)propanoyl)-4,6,6-triisopentylcyclohexa-2,4-dienone], the concentration for half-maximal inhibition (IC50) amounted to 220 nM in [1], 290 nM in [2] and 840 nM in test [3]. Moreover, the MIC in test [4] amounted to 25 µg/mL (≈ 51.8 µM); in test [5] it was 0.5 µg/mL (≈ 1.04 µM); in [6], 1 µg/mL (≈ 2.07 µM); in test [7], 4.4 µg/mL (≈ 9.12 µM).
On to `CC(C)CCC1=C(O)C(CCC(C)C)(CCC(C)C)C(=O)C(C(=O)CCc2ccc(Br)cc2)=C1O` [Compound 11, 3,5-dihydroxy-2-(3-(4-bromophenyl)propanoyl)-4,6,6-triisopentylcyclohexa-2,4-dienone], for which the 50% inhibitory concentration (IC50) in [1] was found to be 890 nM; in test [2] it was 780 nM; in [3], 3300 nM. The MIC in test [4] was 50 µg/mL (≈ 91.3 µM); in test [5], 0.8 µg/mL (≈ 1.46 µM); in test [6], 2.6 µg/mL (≈ 4.75 µM); in test [7] it was 3.3 µg/mL (≈ 6.03 µM).

As a reminder, the IC50 is the concentration that gives 50% inhibition.
